Series [1] addresses T1, UrdPase.
T1 construct: The supernatant fluids (cytosol) were collected and used as an enzyme source
Description: Inhibition of uridine phosphorylase in mouse liver cytosol (apparent Ki, Dixon plots). The class given is biochemical. The following applies: for Ki: enzyme from mouse liver cytosol, uridine 1 mM, ± S.D. On the procedure: (§1) Mouse livers were obtained from female Swiss Albino (CD1) mice weighing 20-24 g (Charles River Laboratories, Boston, Mass.). Mice were sacrificed by cervical dislocation and the livers removed, weighed, minced, and homogenized in ice-cold (3:1, v/w) buffer [20 mM potassium phosphate. pH 8.0; 1 mM dithiothreitol (DTT), 1 mM EDTA] using a Polytron homogenizer (Brinkman Instruments, Westbury, N.J.). The homogenates were centrifuged at 105,000×g for 1 h. at 4° C. The supernatant fluids (cytosol) were collected and used as an enzyme source.
(§2) All assays described below were conducted at 37° C. under conditions where enzyme activity was linear with respect to time and enzyme concentration. For each inhibitor, 5 concentrations were used ranging from […]. Reactions were started by the addition of extract and stopped by boiling in a water bath for 2 minutes followed by freezing, Precipitated proteins were removed by centrifugation. Substrates were separated from products in the supematant by TLC and the radioactivity in the spots was determined on a percentage basis using a Berthold LB-2821 Automatic TLC-Linear Analyzer.
Nucleoside cleavage was measured isotopically by following the formation of nucleobases from their respective nucleosides as previously described. […] The incubation was terminated after 30 min. Uridine and thymidine were separated from their respective nucleobases on silica gel TLC plates developed with CHCl3:MEOH:AcOH (90:5:5, v/v/v). The Rf values were uridine, 0.07; uracil, 0.43; thymidine, 0.14; and thymine, 0.62.
Determination and significance of apparent Ki values was pertbrined using uridine (1 mM) and 5 different concentrations of the inhibitor ranging from […]. Apparent Ki values were estimated from Dixon's plots (1/v vs. [I]) of the data by a computer program with least squares fitting. Apparent Ki, values are related to Ki values by the following equation:
Apparent Ki=Kis(1+[S]/Km)/1+([S]/Km) (Kis/Kii)
where Kis and Kii are inhibition constants that would have been estimated from the replot of slope and intercept, respectively, of a Lineweaver-Burk plots vs. [I]. If a compound is a competitive inhibitor with respect to uridine, Kii=∝ and Kis=Ki. Therefore, the apparent .Ki=Ki(1+[S]1 Km). […] It should be noted, however, that we have not characterized the compounds used in this study with regard to the type of inhibition (competitive, noncompetitive, or uncompetitive) or whether they are substrates for the enzyme.

Series [2] addresses T2, DHUDase (Mus musculus, UniProt Q8CHR6).
T2 construct: The supernatant fluids (cytosol) were collected and used as an enzyme source; from tissue; host or cells: mouse liver cytosol (female Swiss Albino CD1 mice)
T2 sequence (Q8CHR6 1-1025): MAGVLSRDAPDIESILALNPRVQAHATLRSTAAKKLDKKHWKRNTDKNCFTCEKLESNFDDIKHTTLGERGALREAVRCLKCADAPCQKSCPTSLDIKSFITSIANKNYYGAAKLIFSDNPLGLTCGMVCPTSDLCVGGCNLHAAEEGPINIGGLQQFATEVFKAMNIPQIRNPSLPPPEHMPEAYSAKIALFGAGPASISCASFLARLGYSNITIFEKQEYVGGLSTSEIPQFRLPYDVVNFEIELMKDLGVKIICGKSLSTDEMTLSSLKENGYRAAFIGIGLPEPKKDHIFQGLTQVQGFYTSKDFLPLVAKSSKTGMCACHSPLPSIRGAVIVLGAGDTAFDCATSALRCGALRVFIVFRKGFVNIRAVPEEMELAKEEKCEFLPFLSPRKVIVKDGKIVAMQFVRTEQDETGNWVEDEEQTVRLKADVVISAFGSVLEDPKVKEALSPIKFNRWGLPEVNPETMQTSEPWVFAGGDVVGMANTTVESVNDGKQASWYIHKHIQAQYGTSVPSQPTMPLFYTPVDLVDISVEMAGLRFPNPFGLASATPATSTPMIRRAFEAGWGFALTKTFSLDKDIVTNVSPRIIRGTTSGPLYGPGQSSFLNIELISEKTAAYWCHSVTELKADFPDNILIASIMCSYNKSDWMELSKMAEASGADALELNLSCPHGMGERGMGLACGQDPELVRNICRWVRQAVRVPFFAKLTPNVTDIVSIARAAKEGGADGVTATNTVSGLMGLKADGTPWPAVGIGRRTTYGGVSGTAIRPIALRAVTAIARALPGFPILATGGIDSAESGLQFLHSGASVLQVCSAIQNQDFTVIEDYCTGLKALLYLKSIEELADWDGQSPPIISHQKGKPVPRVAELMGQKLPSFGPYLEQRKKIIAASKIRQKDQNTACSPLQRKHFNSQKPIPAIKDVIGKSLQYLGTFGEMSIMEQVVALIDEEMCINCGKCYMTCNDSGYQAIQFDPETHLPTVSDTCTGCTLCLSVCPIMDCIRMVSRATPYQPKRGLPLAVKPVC
Description: Inhibition of dihydrouracil dehydrogenase in mouse liver cytosol (apparent Ki). The class given is biochemical. The following applies: enzyme from mouse liver cytosol; 25 μM uracil; ± S.D. How it is done:
as §1, §2
The activity of the enzyme was measured by following the formation of dihydrouracil, carbamyl-β-alanine, and β-alanine from [6 -^14C]uracil as previously described. […] DHUDase activity was determined as the sum of the products dihydrouracil, carbamyl-β-alanine, and β-alanine. […]

Series [3] is described as follows: Pharmacokinetics of PSAU in CD-1 mice. The following applies: female CD-1 mice; for Cmax / half-life / MRT: mouse, ip, plasma; for Cmax: read-out: Cmax, peak plasma concentration; for half-life: read-out: Apt½, elimination half-life (converted); for MRT: read-out: MRT, mean residence time. The class given is in vivo. How it is done: PSAU was injected i.p. into female CD-1 mice. At various time intervals, 250 μl of whole blood were collected from the orbital sinuses from three mice by a heparinized Natelson pipet and placed on ice. The whole blood was then centrifuged for 5 minutes to separate the plasma which was kept in a -20° C. freezer until preparation for analysis by the HPLC. The pharmacokinetic parameters were estimated by compartmental model-independent methods using a […]/Base program. The AUC was determined by the trapezoidal rule with extrapolation to time infinity using the terminal disposition slope (K) generated by a weighted nonlinear least-squares regression of an exponential fit of the data, with the weighted square factor set as the reciprocal of the calculated concentration squared. Elimination half-life of uridine was calculated from 0.693/K The total plasma clearance (C1) was calculated by dividing the dose by the AUC and the weight of the mouse. The peak plasma concentration (Cmax) values and time to peak plasma concentration (Tmax) values were observed experimental values. Renal clearance (CLR) of uridine was calculated by dividing the […] by the AUC.

Like-named read-outs stand apart in the source and are kept apart here.

`CCOCn1cc([Se]c2ccccc2)c(=O)[nH]c1=O` [1-Ethoxymethyl-5-phenylselenenyluracil, 1-(Ethoxymethyl)-5-(phenylselenenyl)uracil] displayed a melting point of 143 to 145 °C. In addition, the Ki in series [1] is 313 ± 32 µM.

With `O=c1[nH]c(=O)n([C@H]2C[C@H](O)[C@@H](CO)O2)cc1[Se]c1ccccc1` [5-(Phenylselenenyl)-2′-deoxyuridine, 5-(phenylselenenyl)-2′-deoxyuridine], the Ki in series [1] was determined as 5.5 ± 0.6 µM.

As for `O=c1[nH]c(=O)n([C@@H]2O[C@H](CO)[C@@H](O)[C@H]2O)cc1[Se]c1ccccc1` [5-(Phenylselenenyl)uridine, 5-(phenylselenenyl)uridine], in series [1], the Ki is 4 ± 0.2 µM.

With `O=c1[nH]c(=O)n(COCCO)cc1Cc1ccccc1` [5-Benzylacyclouridine (BAU), 5-Benzylacyclouridine, reference compound], the Ki in series [1] turned out to be 3.1 ± 0.22 µM.

`O=c1[nH]cc([Se]c2ccccc2)c(=O)[nH]1` [5-Phenylselenenyluracil (PSU), 5-Phenylselenenyluracil] displayed a melting point of 249 to 251 °C. Further, the Ki in series [2] worked out at 4.8 ± 0.6 µM. Further, in series [1], the Ki was 205 ± 35 µM.

With `O=c1[nH]cc(Sc2ccccc2)c(=O)[nH]1` [5-Phenylthiouracil (PTU), 5-(Phenylthio)uracil], the Ki in series [2] was 5.4 ± 0.6 µM; in series [1], 744 ± 85 µM.

Take `O=c1[nH]c(=O)n(COCCO)c([Se]c2ccccc2)c1F` [6-(Phenylselenenyl)acyclo-5-FUrd]: in series [1], the Ki came out at 35 ± 5.6 µM.

Take `O=c1cc([Se]c2ccccc2)n(COCCO)c(=O)[nH]1` [6-(Phenylselenenyl)acyclouridine, 1-[(2-hydroxyethoxy)methyl]-6-(phenylselenenyl)uridine]: the Ki in series [1] was found to be 19.3 ± 1.5 µM.

On to `O=c1[nH]c(=O)n(COCCO)cc1[Se]c1ccccc1` [PSAU, 1-[(2-Hydroxyethoxy)methyl]-5-(phenylselenenyl)uracil], for which the Ki in series [1] is 3.8 ± 0.8 µM. For the same molecule, in series [3] (PSAU 30 mg/kg i.p.), the “ApVd, volume of distribution” value is listed as 0.331 L/kg; the Cmax was 100 µM; the half-life was 0.7 h; the MRT was determined as 1.28 h. Further, in series [3] (PSAU 60 mg/kg i.p.), the “ApVd, volume of distribution” value is 0.356 L/kg; the Cmax is 210 µM; the half-life was 1.4 h; the mean residence time MRT amounted to 2.27 h.

Take `O=c1ccn([C@@H]2O[C@H](CO)[C@@H](O)[C@H]2O)c(=O)[nH]1` [uridine]: the Michaelis constant (Km) in series [1] (UrdPase from mouse liver, substrate) was found to be 66 µM.

For the origin of these results see patent USRE37623E1, “Enzyme inhibitors, their synthesis, and methods for use” (priority 1993, dated 2002).
